Data as given in patent US11168052B2, “Carbamate derivative compounds, processes for preparing them and their uses” (BIO-PHARM SOLUTIONS CO., LTD., priority 2016, dated 2021).

Key:
[1] = test system: CFA-induced pain model in rats; assay: Antiallodynic activity on Complete Freund's Adjuvant (CFA)-induced inflammatory pain model; type: in vivo, Sprague-Dawley rats; conditions: Rattus norvegicus, ip, 50 mg/kg intraperitoneally, von Frey threshold relative to sham, 0.5 hr after administration, read-out: Efficacy of 50 mg/kg(%)
Summary of the method: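 Male Sprague-Dawley rats given 100 ul CFA intraplantar in the right hind paw; one week later, ipsilateral mechanical allodynia (baseline threshold <4 g required) assessed with von Frey up-and-down method, 50% withdrawal threshold by Dixon formula. Compounds 50 mg/kg i.p. in 30% PEG or 20% Tween 80, tested 0.5 h post-dose; values as % of sham.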

[2] = test system: PTZ (Pentylenetetrazol)-induced clonic seizure in rats; assay: Anti-epilepsy activity, scPTZ test in rats; type: in vivo, SD rats; conditions: Rattus norvegicus, ip
Excerpt: In this experiment, each test compound sample was formulated as described in Biological Experimental Example 1, and administered intraperitoneally to the test animals (mice; ICR or Rat; SD); Experimental animals, male ICR mice and male SD rats, were purchased from OrientBio or Nara biotech, Korea, and housed 4-5 mice per a cage for 4-5 days. The range of mice body weight was used between 19 and 26 grams and range of rats body weight was used between 100 and 130 grams. After Peak time (0.5, 1, 2 and 4 hr) from the administration, PTZ (Pentylenetetrazol) was administered subcutaneously in the concentration capable of inducing 97% intermittent convulsions (mice: 100-110 mg/kg?bw, 10 μl/g, or rats: 90-110 mg/kg?bw, 2 μl/g). If clonic seizure was not observed for at least 30 minutes in the PTZ administered animal, it can be considered that the test compound has anti-epilepsy activity. The median effective dose (ED50) is determined using 6 animals per a concentration (total three different concentrations), and calculated by Litchfield and Wicoxon log-probit method which is a dose-response relationship.

[3] = test system: SNL model in rats; assay: Antiallodynic activity on Chung model (SNL, spinal nerve ligation), von Frey test; type: in vivo, Sprague-Dawley rats; conditions: orally
Excerpt: Male Sprague-Dawley rats (100-130 g, Orient Bio, Korea) were habituated for 1 week before the experiment, and allowed free access to food and water throughout the experimentation. Room temperature and humidity were maintained at 24±2 and 50±10%, respectively. The neuropathic surgery (SNL, Spinal nerve ligation) model was done as described in Kim and Chung (1992). Briefly, an animal was put under gaseous anesthesia with isoflurane. The left lumber spinal nerve L5 and L6 were isolated and tightly ligated with 6-0 silk thread. […]
Tactile sensitivity (Mechanical allodynia) was evaluated using von Frey monofilaments before and after treatment, and animals were included in the study only if the withdrawal threshold value was less than 4 g. […] The tactile sensitivity for the ipsilateral hind paw was measured using the up-and-down method (Dixon, 1980) with seven von Frey monofilaments (0.4, 1, 2, 4, 6, 8, and 15 g) in 3 trials. […] The 50% paw withdrawal threshold for each paw was calculated using the following formula: [Xth]log=[vFr]log+ky where [vFr] is the force of the last von Frey used, k=0.2249 which is the average interval (in log units) between the von Frey monofilaments, and y is a value that depends upon the pattern of withdrawal responses (Dixon, 1980). […]

Row | SMILES | response vs control in vivo at 50 mg/kg [1] | ED50 [2] | ED50 ([3]; Rattus norvegicus, po, von Frey threshold relative to sham) | SNL efficacy % ([3]; dose 30 mg/kg)
1 | NC(=O)O[C@@H]1CCc2cccc(Cl)c2[C@@H]1O [Example 1, (1S, 2R)-8-chloro-1-hydroxy-1,2,3,4-tetrahydronaphthalen-2-yl carbamate] | 74.9% | 36.3 mg/kg | 35.5 mg/kg | 
2 | NC(=O)O[C@@H]1c2c(Cl)cccc2CC[C@@H]1O [Example 19, (1R, 2S)-8-chloro-2-hydroxy-1,2,3,4-tetrahydronaphthalen-1-yl carbamate] | 51.6% | 50 mg/kg |  | 30(17.8%)
